Reference: ChEMBL document CHEMBL5532652, “Design and synthesis of pterostilbene derivatives bearing triazole moiety that might treat DSS-induced colitis in mice through modulation of NF-κB/MAPK signaling pathways” (Eur J Med Chem, 2024)
Active and inactive are the calls of the source. No cut-off for these calls is given here.

Tests used:
[1] = Acute toxicity in C57BL/6 mouse assessed as lung damage at 1000 mg/kg, po measured for 14 days; assay type: organism-based; conditions: in vivo, 336 h, time 14 day
RAW264.7 [2] = assay: Anti-inflammatory activity in mouse RAW264.7 cells assessed as inhibition of LPS-induced NO production at 10 uM incubated pretreated with compound for 1 hr followed by LPS-induction and measured after 24 hrs by Griess reagent based assay relative to control; assay type: functional; conditions: time 25 hrs
RAW264.7 [3] = assay: Anti-inflammatory activity in mouse RAW264.7 cells assessed as inhibition of LPS-induced NO production incubated pretreated with compound for 1 hr followed by LPS-induction and measured after 24 hrs by Griess reagent based assay; assay type: functional, cell-based
[4] = Cytotoxicity against mouse RAW264.7 cells assessed as reduction in cell viability at 20 uM incubated for 24 hrs in presence of LPS by MTT assay; assay type: toxicity, cell-based
[5] = Cytotoxicity against mouse RAW264.7 cells assessed as reduction in cell viability at 20 uM incubated for 24 hrs in absence of LPS by MTT assay; assay type: toxicity, cell-based
RAW264.7 [6] = assay: Anti-inflammatory activity against LPS-stimulated mouse RAW264.7 cells assessed as downregulation of LPS-induced iNOS expression at 0.5 to 2 uM preincubated with compound for 1 hr followed by LPS stimulation and measured after 24 hrs by Western blot analysis; assay type: functional, cell-based; conditions: dose 0.5-2 µM, time 25.0 hrs
RAW264.7 [7] = assay: Anti-inflammatory activity against LPS-stimulated mouse RAW264.7 cells assessed as downregulation of LPS-induced COX-2 expression at 0.5 to 2 uM preincubated with compound for 1 hr followed by LPS stimulation and measured after 24 hrs by Western blot analysis; assay type: functional, cell-based; conditions: dose 0.5-2 µM, time 25.0 hrs
RAW264.7 [8] = assay: Anti-inflammatory activity against LPS-stimulated mouse RAW264.7 cells assessed as reduction in LPS-induced iNOS level preincubated with compound for 1 hr followed by LPS stimulation and measured after 24 hrs by Western blot analysis; assay type: functional, cell-based; conditions: dose 0.5-2 µM, time 25.0 hrs
RAW264.7 [9] = assay: Anti-inflammatory activity against LPS-stimulated mouse RAW264.7 cells assessed as reduction in LPS-induced COX-2 level preincubated with compound for 1 hr followed by LPS stimulation and measured after 24 hrs by Western blot analysis; assay type: functional, cell-based; conditions: dose 0.5-2 µM, time 25.0 hrs
RAW264.7 [10] = assay: Anti-inflammatory activity in LPS-stimulated mouse RAW264.7 cells assessed as inhibition of IkappaB phosphorylation at 0.5 to 2 uM preincubated with compound for 1 hr followed by LPS stimulation and measured after 30 mins by Western blot analysis; assay type: functional, cell-based; conditions: dose 0.5-2 µM, time 1.5 hrs
RAW264.7 [11] = assay: Anti-inflammatory activity in LPS-stimulated mouse RAW264.7 cells assessed as inhibition of ERK phosphorylation preincubated with compound for 1 hr followed by LPS stimulation and measured after 30 mins by Western blot analysis; assay type: functional, cell-based; conditions: dose 0.5-2 µM, time 1.5 hrs
RAW264.7 [12] = assay: Anti-inflammatory activity in LPS-stimulated mouse RAW264.7 cells assessed as reduction in p38 level at 0.5 to 2 uM preincubated with compound for 1 hr followed by LPS stimulation and measured after 30 mins by Western blot analysis; assay type: functional, cell-based; conditions: dose 0.5-2 µM, time 1.5 hrs
RAW264.7 [13] = assay: Anti-inflammatory activity in LPS-stimulated mouse RAW264.7 cells assessed as reduction in ERK level at 0.5 to 2 uM preincubated with compound for 1 hr followed by LPS stimulation and measured after 30 mins by Western blot analysis; assay type: functional, cell-based; conditions: dose 0.5-2 µM, time 1.5 hrs
RAW264.7 [14] = assay: Anti-inflammatory activity in LPS-stimulated mouse RAW264.7 cells assessed as reduction in JNK level at 0.5 to 2 uM preincubated with compound for 1 hr followed by LPS stimulation and measured after 30 mins by Western blot analysis; assay type: functional, cell-based; conditions: dose 0.5-2 µM, time 1.5 hrs
Mus musculus [15] = assay: Anti-inflammatory activity against DSS-induced acute colitis C57BL/6J mouse model assessed as reduction in MPO level in colon at 10 to 20 mg/kg, po measured for 7 days; assay type: functional, organism-based; conditions: dose 10-20 mg/kg, time 7.0 day
[16] = Toxicity in C57BL/6 mouse assessed as reduction in disease index at 20 mg/kg, po measured for 7 days; assay type: organism-based; conditions: in vivo, 168 h, time 7 day
Mus musculus [17] = assay: Anti-inflammatory activity against DSS-induced acute colitis C57BL/6J mouse model assessed as decrease in colon length at 10 to 20 mg/kg, po measured for 7 days; assay type: functional, organism-based; conditions: dose 10-20 mg/kg, time 7.0 day
Mus musculus [18] = assay: Anti-inflammatory activity against DSS-induced acute colitis C57BL/6J mouse model assessed as decrease in neutrophil infiltration in colon at 10 to 20 mg/kg, po measured for 7 days; assay type: functional, organism-based; conditions: dose 10-20 mg/kg, time 7.0 day
Mus musculus [19] = assay: Anti-inflammatory activity against DSS-induced acute colitis C57BL/6J mouse model assessed as decrease in goblet cells in colon at 10 to 20 mg/kg, po measured for 7 days; assay type: functional, organism-based; conditions: dose 10-20 mg/kg, time 7.0 day
Mus musculus [20] = assay: Anti-inflammatory activity against DSS-induced acute colitis C57BL/6J mouse model assessed as disappearance of crypt foci in colon at 10 to 20 mg/kg, po measured for 7 days; assay type: functional, organism-based; conditions: dose 10-20 mg/kg, time 7.0 day
Mus musculus [21] = assay: Anti-inflammatory activity against DSS-induced acute colitis C57BL/6J mouse model assessed as reduction in IL-1beta level in colon at 10 to 20 mg/kg, po measured for 7 days by ELISA analysis; assay type: functional, organism-based; conditions: dose 10-20 mg/kg, time 7.0 day
Mus musculus [22] = assay: Anti-inflammatory activity against DSS-induced acute colitis C57BL/6J mouse model assessed as reduction in IL-6 level in colon at 10 to 20 mg/kg, po measured for 7 days by ELISA analysis; assay type: functional, organism-based; conditions: dose 10-20 mg/kg, time 7.0 day
[23] = Acute toxicity in female C57BL/6 mouse assessed as effect on body weight gain at 1000 to 2000 mg/kg, po measured for 14 days; assay type: organism-based; conditions: in vivo, 336 h, dose 1000-2000 mg/kg, time 14 day
[24] = Acute toxicity in female C57BL/6 mouse assessed as effect on body weight loss at 1000 to 2000 mg/kg, po measured for 14 days; assay type: organism-based; conditions: in vivo, 336 h, dose 1000-2000 mg/kg, time 14 day
[25] = Acute toxicity in male C57BL/6 mouse assessed as effect on body weight loss at 1000 to 2000 mg/kg, po measured for 14 days; assay type: organism-based; conditions: in vivo, 336 h, dose 1000-2000 mg/kg, time 14 day
[26] = Acute toxicity in female C57BL/6 mouse assessed as lethargy at 1000 to 2000 mg/kg, po measured for 14 days; assay type: organism-based; conditions: in vivo, 336 h, dose 1000-2000 mg/kg, time 14 day
[27] = Acute toxicity in male C57BL/6 mouse assessed as lethargy at 1000 to 2000 mg/kg, po measured for 14 days; assay type: organism-based; conditions: in vivo, 336 h, dose 1000-2000 mg/kg, time 14 day
[28] = Acute toxicity in female C57BL/6 mouse assessed as hyperactivity at 1000 to 2000 mg/kg, po measured for 14 days; assay type: organism-based; conditions: in vivo, 336 h, dose 1000-2000 mg/kg, time 14 day
[29] = Acute toxicity in male C57BL/6 mouse assessed as hyperactivity at 1000 to 2000 mg/kg, po measured for 14 days; assay type: organism-based; conditions: in vivo, 336 h, dose 1000-2000 mg/kg, time 14 day
[30] = Acute toxicity in female C57BL/6 mouse assessed as anorexia at 1000 to 2000 mg/kg, po measured for 14 days; assay type: organism-based; conditions: in vivo, 336 h, dose 1000-2000 mg/kg, time 14 day
[31] = Acute toxicity in female C57BL/6 mouse assessed as effect on fur laxity at 1000 to 2000 mg/kg, po measured for 14 days; assay type: organism-based; conditions: in vivo, 336 h, dose 1000-2000 mg/kg, time 14 day
[32] = Acute toxicity in male C57BL/6 mouse assessed as effect on fur laxity at 1000 to 2000 mg/kg, po measured for 14 days; assay type: organism-based; conditions: in vivo, 336 h, dose 1000-2000 mg/kg, time 14 day
[33] = Acute toxicity in C57BL/6 mouse assessed as heart damage at 1000 mg/kg, po measured for 14 days; assay type: organism-based; conditions: in vivo, 336 h, time 14 day

In the case of C=CCOc1ccc(/C=C/c2cc(OC)cc(OC)c2-c2cnnn2C(=O)NCCCl)cc1, the Activity [1] is reported as “Non-Toxic”, the inhibition at 10 µM (RAW264.7 [2]) is reported as 98% and the IC50 (RAW264.7 [3]) is reported as 0.6 µM. For the same compound, the IC50 at 24 h [4] was > 50 µM, the IC50 at 24 h [5] was > 50 µM and the Activity (RAW264.7 [6]) was “Active”. The Activity (RAW264.7 [7]) was “Active”, the Activity (RAW264.7 [8]) was “Dose-Dependent Effect” and the Activity (RAW264.7 [9]) was “Dose-Dependent Effect”. For the same compound, the Activity (RAW264.7 [10]) was “Active”, the Activity (RAW264.7 [11]) was “Dose-Dependent Effect” and the Activity (RAW264.7 [12]) was “Active”. For the same compound, the Activity (RAW264.7 [13]) was “Active”, the Activity (RAW264.7 [14]) was “Active” and the Activity (Mus musculus [15]) was “Active”. The Activity [16] was “Non-Toxic”, the Activity (Mus musculus [17]) was “Active” and the Activity (Mus musculus [18]) was “Active”. For the same compound, the Activity (Mus musculus [19]) was “Active”, the Activity (Mus musculus [20]) was “Active” and the Activity (Mus musculus [21]) was “Active”. For the same compound, the Activity (Mus musculus [22]) was “Active”, the Activity [23] was “Non-Toxic” and the Activity [24] was “Non-Toxic”. For the same compound, the Activity [25] was “Non-Toxic”, the Activity [26] was “Non-Toxic” and the Activity [27] was “Non-Toxic”. For the same compound, the Activity [28] was “Non-Toxic”, the Activity [29] was “Non-Toxic” and the Activity [30] was “Non-Toxic”. For the same compound, the Activity [31] was “Non-Toxic”, the Activity [32] was “Non-Toxic” and the Activity [33] was “Non-Toxic”.
